Assay [1] deals with G0S2 mRNA. The experiment in a line: G0S2 mRNA expression in Hepa1-6 cells (qRT-PCR). Conditions: 48 hours. It is filed as cell-based, mouse. The protocol: The effect of the compound on the expression level of mRNA of the G0S2 gene was evaluated for the three compounds extracted so far. 24 hours after seeding with Hepa1-6 cells, the cells were exposed to hit compounds at 10 μM and sampling and total RNA extraction were carried out 24 hours later. Subsequently, changes in the expression level of mRNA of the G0S2 gene were measured by a qRT-PCR method.
Hepa1-6 cells were exposed to 10 μM of each of seven derivatives of Compound No. 2 (Examples 2 and 4 to 9) and an effect of the derivative compounds on the expression level of G0S2 mRNA after 24 hours was evaluated.
Therefore, Hepa1-6 cells were exposed to Compound No. 2 and the compound of Example 2 (NS-3-011) in the range of 0.5 to 5 μM and an effect of the compounds on the expression level of endogenous G0S2 mRNA after 48 hours was evaluated.
Subsequently, Hepa1-6 cells were transfected with siRNA against Hsd17b4 or control siRNA in the presence (10 μM) or absence (indicated as “DMSO” in FIG. 22B) of Compound No. 2. Subsequently, each cell was recovered after 48 hours and total RNA was extracted. Subsequently, the expression level of the G0S2 gene was quantified by real-time PCR.
For orientation: In qPCR the cycle at which signal appears reflects the starting amount.

For assay [2], the system named is G0S2 protein. The experiment in a line: G0S2 protein in liver of normal mice. Type of assay: in vivo, mouse. Conditions: normal ICR male mice, 15 mg/kg subcutaneous, 4 hours and 6 hours after administration.
For assay [3], the system named is nuclear receptor RARα mRNA. The experiment in a line: RARα mRNA expression in Hepa1-6 cells (qRT-PCR). Type of assay: cell-based, mouse. Conditions: 10 μM, 24 hours.
Assay [4] relates to Bmal1 promoter. The experiment in a line: Bmal1 promoter luciferase assay in MEF cell line. It is filed as cell-based. Conditions: MEF reporter cell line, 10 μM, 24 hours. The protocol: Therefore, in order to exclude compounds having an effect on clock genes in normal cells, studies were conducted using the MEF cell line stably expressing an expression cassette in which a luciferase gene was ligated to the downstream side of the Bmal1 promoter.

The test system of assay [5] is STAT5 protein. The experiment in a line: Nuclear abundance of STAT5 protein in NIH3T3 cells (Western blotting). It is filed as cell-based, mouse. Conditions: NIH3T3 cells, 2.5, 5 and 10 μM, 24 hours, vs control. The protocol:
Compound No. 2 or DMSO (control) at final concentrations of 2.5, 5 and 10 μM was added to the medium of NIH3T3 cells, which are mouse fibroblasts. Subsequently, the cells were recovered after 24 hours, the nuclear protein was prepared, and the abundance of the STAT5 protein was measured by Western blotting.
A general note: In western blotting, separated proteins are transferred to a membrane and probed.

The test system of assay [6] is Ccl2 mRNA. The experiment in a line: LPS hepatitis model mouse: Ccl2 mRNA in liver. It is filed as in vivo. The protocol:
Next, whether or not Compound No. 2 whose effect in vivo was confirmed has an effect to antagonize the activation of an inflammatory signal was examined. Hepa1-6 cells were exposed to Compound No. 2 at a dose of 10 μM simultaneously with exposure to lipopolysaccharide (LPS) or TNFα which activates NF-κB for which the G0S2 protein acts as a regulator. As shown in FIGS. 10A and 10B, the cells were recovered 12 hours after the exposure and the expression level of Ccl2 mRNA was measured. […] In addition, 25 μg of LPS was administered to the tail vein of a mouse to thereby construct a hepatitis model. 30 minutes after the administration of LPS, Compound No. 2 (5 mg/kg) was administered to the tail vein of the mouse, and the liver was sampled at 6 hours.
LPS (10 μg/mouse) was administered to ICR male mice by tail vein injection to prepare an LPS-administered group. […]
In addition, for the liver of mice of each group, the expression level of mRNA of Ccl2, which is a target gene of NF-κB, was quantified by real-time PCR. FIG. 11C is a graph showing the quantitative results of the expression level of mRNA of Ccl2.
10 μg of LPS was intraperitoneally administered to mice to construct a hepatitis model. […] 5 hours after the administration of each compound, the liver was harvested from each mouse and the expression level of Ccl2 was quantified by real-time PCR.

Assay [7] has as its system G0S2 protein. The experiment in a line: LPS-administered mice: G0S2 protein in liver (Western blotting). It is filed as in vivo. Particulars: LPS 10 μg/mouse tail vein; 5 mg/kg subcutaneous 1 hour after LPS; liver 5 hours later; vs LPS group. How it is done: (§1) LPS (10 μg/mouse) was administered to ICR male mice by tail vein injection to prepare an LPS-administered group. In addition, a mouse to which physiological saline was administered instead of LPS was prepared and used as a control group. Subsequently, the LPS-administered group was divided into two groups, in which 1 hour after the administration of LPS, Compound No. 2 was subcutaneously administered at a dose of 5 mg/kg to the dorsal region of mice of one group which was then served as an LPS+No. 2-administered group. Subsequently, 5 hours after the administration of Compound No. 2, mice of each group were sacrificed and the liver was harvested.
Subsequently, the expression level of the G0S2 protein in the liver of mice of each group obtained was quantified by Western blotting. FIG. 11A is a graph showing the quantitative results of the G0S2 protein.

Assay [8] relates to p65 protein (NF-κB). Nature of the assay: LPS-administered mice: nuclear abundance of p65 protein in liver (Western blotting). Type of assay: in vivo. Particulars: LPS 10 μg/mouse tail vein; 5 mg/kg subcutaneous 1 hour after LPS; liver 5 hours later; vs LPS group. The protocol:
as §1
For the liver of mice of each group, the nuclear abundance of the p65 protein, which is one of the constituent proteins of NF-κB, was quantified by Western blotting. FIG. 11B is a graph showing the quantitative results of the p65 protein.

Assay [9] concerns G0S2 promoter (−2030→+10). The experiment in a line: G0S2 promoter (−2030→+10) luciferase assay in Hepa1-6 cells. Type of assay: cell-based, mouse. Particulars: Hepa1-6 reporter cells, 10 μM, 24 hours. The protocol:
To get closer to the environment in the liver, a cell stably expressing an expression cassette in which a luciferase gene was ligated to the downstream side of the G0S2 promoter (−2030→+10) was constructed in the Hepa1-6 cell, which is a mouse hepatoma-derived cell. Using this cell, an effect of the candidate compounds on the luciferase activity was evaluated in the same manner as in the primary screening described above.

In assay [10] the test system is G0S2 transcriptional activity regulatory region. Nature of the assay: Luciferase assay with G0S2 transcriptional activity regulatory regions of each length in NIH3T3 cells. Particulars: NIH3T3 stable cells, 10 μM, 24 hours. It is filed as cell-based, mouse. How it is done:
Subsequently, these expression vectors were transfected into NIH3T3 cells, which are mouse fibroblast cells, to construct cells stably expressing luciferase.
Subsequently, Compound No. 2 or DMSO (control) at a final concentration of 10 μM was added to the medium of each cell. Subsequently, the cells were recovered after 24 hours and the luciferase activity was measured.

Regarding `CCCCCCNC(=N)NCc1ccccc1` [Compound No. 2], the “G0S2 mRNA expression level” value in assay [1] (5 μM, vs DMSO) is recorded as “significant decrease”. The “effect of lowering the expression level of the G0S2 gene after transfection with siRNA against Hsd17b4” value in [1] (10 μM) is on record as “disappeared”. Besides, the “expression level of the G0S2 gene” value in assay [1] (10 μM, control siRNA) is recorded as “significantly decreased”. Further, the “expression level of G0S2 protein in the liver” value in assay [2] is “significant decrease”. Also, the “expression level of nuclear receptor RARα mRNA” value in assay [3] was “no change”. Further, the Bmal1 promoter activity entry in assay [4] is listed as “no significant change”. Moreover, in [5], the “nuclear abundance of the STAT5 protein” value is reported as “decreased in a dose-dependent manner”. In assay [6] (LPS 10 μg/mouse tail vein, 5 mg/kg subcutaneous 1 hour after LPS, liver 5 hours later, vs LPS group), the “expression level of Ccl2 mRNA in the liver” value was “significantly decreased”. In addition, the “expression of Ccl2 mRNA in the liver” value in assay [6] (LPS 25 μg tail vein, compound 5 mg/kg tail vein 30 minutes after LPS, liver at 6 hours) was “significantly inhibited”. Also, the “expression of G0S2 protein in the liver” value in [7] is reported as “significantly inhibited”. In addition, in assay [8], the “nuclear abundance of the p65 protein in the liver” value is reported as “significantly decreased”. Besides, in assay [9], the “G0S2 promoter (−2030→+10) activity (relative value)” value was “less than ½”. Besides, the “effect of inhibiting the expression of luciferase when the STAT5/6 binding region disappears” value in assay [10] was “decreased”.

(Values after patent publication US20190359560A1, “ANTI-INFLAMMATORY DRUG AND USES THEREOF” (KYUSHU UNIVERSITY, NATIONAL UNIVERSITY CORPORATION, priority 2015, published 2019).)
